ChEMBL document CHEMBL3507680, “University of Dundee, Gates Library screen for HepG2 cell viability”

experiment: Human HepG2 cell viability assay in 384 well format; assay type: toxicity, cell-based; set-up: dose 125 nL, time 70.5 hour; cytotoxicity at 70.5 h: concentration not given beside the values; conditions: HepG2 cells, read-out: Inhibition

SMILES | cytotoxicity at 70.5 h
O=C(CN1CCCCCCC1=O)NCc1ccccn1 | -1.3%
Cc1ncsc1C(=O)NC1CCN(c2ncccc2C#N)CC1 | -6.11%
Cc1cccc2c1NC1(CCCC1)NC2=O | -13.5%
CC(=O)N1CCCC2(C1)CN(C(=O)Cc1ccccc1)CCO2 (stereo not given) | -15.1%
Cc1nnsc1C(=O)NCc1cccnc1N(C)C | -3.02%
CC(CCc1ccc(O)cc1)NC1CCN(C(=O)C(C)C)CC1 (stereo not given) | -11.4%
CCc1cnc(CN(C(C)=O)C2CCN(CCN3CCCCC3)C2)o1 (stereo not given) | -3.61%
CC(C)c1ncc2c(n1)CN(Cc1nc(-c3ccsc3)no1)CC2 | -13.7%
N#Cc1cccc(C(=O)N2CC[C@H]3[C@H]2CCN3CC2CCOCC2)c1 | 26.3%
CCn1c(C2CCN(C(=O)CCc3cc(Cl)no3)CC2)nn(C)c1=O | -6.98%
Cc1nc2c(c(N3CCCOCC3)n1)CCN(C(=O)N1CCCC1)CC2 | -4.22%
COCCCNC(=O)c1ccn(-c2ccc3ccccn23)n1 | -12.6%
CN(Cc1nccs1)C1CCN(c2ncccn2)CC1 | -8.38%
CCN(CC)S(=O)(=O)N1CC[C@H](c2ccccc2)[C@H]2NCCCC[C@H]21 | -3.25%
Cn1c(=O)oc2ccc(NC(=O)N3CCOCC3)cc21 | 31.6%
CC(=O)NC(=O)C1(CCCc2ccncc2)CCN1 (stereo not given) | -2.25%
CN1CCC2(CCN(CC3CCOCC3)CC2)C1=O | -10.4%
O=C(c1cccnc1)N1C[C@@H]2CC[C@H](C1)N(Cc1ccc(F)cc1Cl)C2 | 2.53%
CN(C)c1ccc(C(=O)N2CCC(c3n[nH]c(C4CC4)n3)CC2)cc1 | -6.1%
COc1ccc(CCNC(=O)Nc2cc(C)nn2C)cc1 | -2.92%
OCCN(Cc1cccnc1)c1ccc(Br)cn1 | -2.3%
CCn1nc(CC(C)C)cc1C(=O)NCCCOC | -0.898%
Cc1csc(CNC(=O)N2CCCC(c3nncn3C)C2)n1 (stereo not given) | -4.57%

SMILES | cytotoxicity at 70.5 h
CCS(=O)(=O)N1CCOC2(COCCN(c3nccs3)C2)C1 (stereo not given) | -8.91%
OC(COCc1ccccc1F)CN1CCC(Cn2cccn2)CC1 (stereo not given) | -0.0861%
CCCC(=O)N1CCC2(CC1)COC2 | -7.56%
O=C1CN(CCS(=O)(=O)c2ccc(Cl)cc2)CCN1 | -11.9%
CN(Cc1cccc(F)c1)C(=O)CN1CCCC(Cn2cncn2)C1 (stereo not given) | 15.6%
O=C(O)c1ccn(-c2ccc(NC(=O)c3ccccc3Cl)cc2)n1 | 11.9%
COc1cc(C(=O)N(CCC#N)Cc2ccccn2)ccc1C | 2.05%
O=C(CCNS(=O)(=O)c1ccccc1F)NCc1ccoc1 | 4.05%
N#CCCN(Cc1ccco1)C(=O)Cc1ccc(-n2cnnn2)cc1 | -6.73%
Cn1c(C(=O)N2CCC(C(=O)N3CCCC3)CC2)c(Cl)c2ccccc21 | -9.31%
Cc1ccc(CSc2nc(N)cc(NCCS(=O)(=O)N(C)C)n2)cc1 | -2.68%
CC(=O)Nc1cc(C(C)(C)C)sc1C#N | -3.4%
CC(C)N(C)C(=O)CN1CCCC(c2ccc(C(=O)O)cc2)C1 (stereo not given) | 32.3%
CNS(=O)(=O)CC(=O)NC(C)Cc1ccc(-c2ccccc2)cc1 (stereo not given) | 1.33%
O=C(CCc1ccc(F)cc1)NS(=O)(=O)c1ccc2c(c1)OCCO2 | -4.67%
Cc1cccc2nc(C(=O)N3CCCC[C@]4(C)NC(=O)CCC[C@H]34)cn12 | -5.3%
COc1cc(N2C[C@@H]3CC[C@H](C2)N(CC2CCC2)C3=O)ncn1 | -3.49%
O=C1COC2(COCCN(c3cnccn3)C2)CN1c1cccc(F)c1 (stereo not given) | -6.69%
COCCNc1nnc(S(=O)(=O)CCC(C)(C)C#N)s1 | -5.9%
Cc1cc(CN(C)C(=O)NC2CCC(O)CC2)no1 (stereo not given) | -7.4%
O=C(NCC1CC2(CO1)CN(Cc1cccs1)C2)C1CCC1 (stereo not given) | 19.9%
CCCN1CCC(Cc2noc(-c3[nH]cnc3C)n2)CC1 | 6.08%
Cc1nc(C2CCNCC2)cc(N(C)CCc2cn[nH]c2)n1 | -3.08%

SMILES | cytotoxicity at 70.5 h
CS(=O)(=O)N1CC[C@]2(C[C@@H](OCC3CCC3)CO2)C1 | -12.4%
CCn1ccc(C(=O)N2CCOC(c3nc(-c4cccs4)no3)C2)n1 (stereo not given) | -4.33%
CSc1ncccc1C(=O)N1CCC(c2nc3c(C)cccc3[nH]2)CC1 | 12.8%
O=C(CN1CCOC1=O)N1CC[C@@H](c2ccc3ccccc3c2)[C@H](O)C1 | -9.33%
CCCc1ccc(S(=O)(=O)Nc2ccc(=O)n(C)c2)cc1 | 22.8%
CNC(=O)COc1ccc(CNc2cncc(-n3cccn3)n2)cc1 | -16.8%
CCn1ccnc1CN(C)C1CCCN(Cc2ccccc2F)C1 (stereo not given) | -1.31%
CC1(C)CN(C(CNS(C)(=O)=O)c2ccc(Cl)cc2)CCO1 (stereo not given) | -5.58%
COCCn1cc(C(=O)N2CCCC2c2noc(C)n2)ccc1=O (stereo not given) | 40.8%
COCCOc1ccnc(-c2noc([C@@H]3CCCN3CC3CC3)n2)c1 | -9.26%
CCc1nc(CC(=O)N2CCCCC2Cn2cccn2)cs1 (stereo not given) | 19%
CC(C)NC(=O)c1nc2c(s1)CCCN2C(C)C | 7.18%
Cc1nn(C)c(N(C)C)c1CNCC(O)COc1cccc(F)c1 (stereo not given) | -11.4%
CCc1nc(CN2CCOC(Cn3cncn3)C2)no1 (stereo not given) | 16.6%
CC(C)CNC(=O)CNc1c(NCc2ccncc2)c(=O)c1=O | 4.58%
CC(C)n1cnc(-c2nc(C(=O)N3CCN(C)CC3)c3ccccn23)c1 | -2.41%
O=C(CCn1ccnc1)N1CC[C@@H](c2ccc3ccccc3c2)[C@H](O)C1 | 4.4%
O=C(c1ccc[nH]1)N1CCCn2c(CN3CCCCC3)nnc2C1 | -5.4%
CC(C)(C)Oc1ccc(C(=O)N2CCOCC2c2ncon2)cc1 (stereo not given) | -0.751%
Cn1cnnc1CCNC(=O)c1ccccc1OC1CCC1 | 7.31%
COc1cccc(Cn2ncc(N(C)CCc3ccccc3)cc2=O)c1 | -6.35%
COCCOc1ccc(Cl)c(C(=O)N2CCN(CCO)CC2)n1 | -2.95%
CNc1ncc2c(n1)CN(c1cccc(OC)c1)C2=O | -13.9%

SMILES | cytotoxicity at 70.5 h
Cc1cc(C)n(CCN2CCN(C(=O)c3cc4ccccc4o3)CC2)n1 | -0.14%
C1CCCN(c2nc(C3CC3)no2)CC1 | 1.49%
COC(=O)C(C)N(Cc1cc(=O)n(C)c(=O)n1C)C1CC1 (stereo not given) | 4.91%
CN(C)C(=O)NC1COC2(CCN(S(=O)(=O)c3ccccc3)CC2)C1 (stereo not given) | -10.3%
Fc1ccc(CN2CCCC2Cn2cncn2)c2ncccc12 (stereo not given) | 2.94%
N#Cc1ccc(NCCCOCC2CCOC2)c(F)c1 (stereo not given) | 6.96%
Cn1cc(NCCOc2ccc(F)cc2)cn1 | -5.12%
CSCCCNc1nccc(-c2cc(C(=O)O)ccn2)n1 | -7.43%
O=C(c1ccccc1OCC1CC1)N1CCCC1Cn1cccn1 (stereo not given) | 17.7%
CCc1cnc(C)nc1NCc1cnc2c(c1)CCC2 | -9.06%
Cc1ccc(CN2CCCC3(CCN(S(C)(=O)=O)C3)C2)o1 (stereo not given) | -10.2%
CO[C@@H]1CCN(c2ncc(F)cn2)[C@@H]2CN(Cc3cccnc3)C[C@@H]21 | -0.732%
CCOC(=O)N1CCN(c2nc(N3CCCC3)c3ccccc3n2)CC1 | -6.36%
c1cnnc(NCC2CN(Cc3ccon3)CCO2)c1 (stereo not given) | 26.6%
Cc1cc2n(n1)CC(CNC1CCN(C(=O)c3ccco3)CC1)CN2 (stereo not given) | -6.69%
COc1ccc(C(C(=O)O)N2CCC(O)(c3cccnc3)CC2)cc1Cl (stereo not given) | -9.89%
Cc1cc(C)n(CC(C)NCCN2CCc3ccccc32)n1 (stereo not given) | -3.59%
CC(C)c1n[nH]c(C2CN(C(=O)c3ccnc(C4CC4)n3)CCO2)n1 (stereo not given) | 16.3%
O=C(COCC1CC1)N1CCCC(n2cccn2)C1 (stereo not given) | 2.78%
CCc1nnc2n1CCN(Cc1nc3c(F)cccc3[nH]1)C2 | 11.8%
Cc1nc(CN2CCCn3c(nc(Cn4ccnc4)cc3=O)C2)cs1 | -21.2%
CS(=O)(=O)NC[C@@H]1OC[C@H]2CN(C(=O)c3ccc[nH]3)CC[C@H]21 | 3.6%
Cc1ccc(NC(=O)NC(C)(C)c2noc(C)n2)cc1 | 7.68%

SMILES | cytotoxicity at 70.5 h
CN(C)CCOCc1nnc2n1CCN(Cc1cccs1)CC2 | 1.78%
Cc1ccc(N2CC[C@@H]3CN(Cc4cc[nH]n4)C[C@@H]3C2)nn1 | -2.82%
Nc1nnc(SCC(=O)NCC(O)c2ccccc2)s1 (stereo not given) | 18.6%
COC(=O)CC(NC(=O)CCn1cccn1)c1ccc(C)cc1 (stereo not given) | -0.705%
COCCC(=O)N1C[C@H]2CCC[C@@]2(COC)C1 | -6.36%
Cc1ccc(OCCC(=O)NC2CCc3nc(C)cn3C2)cc1 (stereo not given) | 2.29%
Cc1nn(-c2ccccc2)c(C)c1-c1ccnc(N2CCCOCC2)n1 | -3.17%
O=C(c1ccoc1)N1CCC(Nc2cccnn2)CC1 | -8.84%
O=C(C1CCOCC1)N1CCOC(CC2CCCCC2)C1 (stereo not given) | -8.55%
CS(=O)(=O)NC[C@]12COC[C@H]1CN(CC1CCC1)C2 | -12.2%
CC(CC(=O)c1ccco1)NC(=O)c1ccccn1 (stereo not given) | -10.8%
C=C(C)COc1ccccc1CN1CCC(NC(C)=O)CC1 | 25.2%
CC1c2ncc(COCC3CCOCC3)n2CCN1Cc1cccnc1 (stereo not given) | -4.06%
CCc1nc(C2CCCN(C(=O)c3cccc4cn[nH]c34)C2)no1 (stereo not given) | 3.52%
Cc1ccccc1CNC(=O)N1CC[C@@H]2CN(C)S(=O)(=O)[C@@H]2CC1 | 17.8%
O=C(NC1CCN(c2snc3ccccc23)CC1)C1CCC1 | 14.4%
N#Cc1cc(S(N)(=O)=O)ccc1N1CCc2c(Cl)cccc2C1 | 42.5%
O=C1CCC2(CCN(Cc3cscn3)CC2)CN1CCCO | -8.82%
NC(=O)c1cccc(CS(=O)(=O)CC(O)Cn2cccn2)c1 (stereo not given) | -4.59%
CC1c2ncc(CN3CCN(C)CC3)n2CCN1Cc1ccc(F)cc1 (stereo not given) | -2.82%
CCOn1c(SC(C)C)nc2ccccc2c1=O | -8.12%
N#Cc1ccc(Cl)cc1NCC1CCOC1 (stereo not given) | -1.84%
O=S(=O)(NCCc1c[nH]c2cc(F)ccc12)C1CCOC1 (stereo not given) | 0.583%
